Results taken from PubChem BioAssay (NCI).
Several values for one entry are separate records, joined by “and”; a condition that tells them apart may be missing. Identical values can stand only once.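 Five compound concentrations were applied to cells in 96-well plates for 48 hours; endpoints were derived by simple linear interpolation of the resulting dose-response curve. At the GI50, growth is halved. TGI: total growth inhibition.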 Where a SMILES comes first, the peptide text is derived from it. [ ]: non-standard residue; d: D form. The star is where a group is joined. NMeF = CN[CH](Cc1ccccc1)C(=O)O; NMeV = CN[CH](C(=O)O)C(C)C; Boc = CC(C)(C)OC(=O)*; OBn = c1ccc(CO*)cc1

Tests used:
Test in all cases: DTP human tumour cell line panel, 48 h
DMS 114 small cell lung = system: DMS 114 small cell lung
KM12 colon = system: KM12 colon
KM20L2 colon = system: KM20L2 colon
LXFL 529 NSCLC = system: LXFL 529 NSCLC
M19-MEL melanoma = system: M19-MEL melanoma
MOLT-4 leukemia = system: MOLT-4 leukemia
SW-620 colon = system: SW-620 colon
U251 CNS = system: U251 CNS
UACC-257 melanoma = system: UACC-257 melanoma
UACC-62 melanoma = system: UACC-62 melanoma
CAKI-1 renal = system: CAKI-1 renal
NCI/ADR-RES ovarian = system: NCI/ADR-RES ovarian

SMILES | TGI (DMS 114 small cell lung) | TGI (KM12 colon) | TGI (KM20L2 colon) | TGI (LXFL 529 NSCLC) | TGI (M19-MEL melanoma) | TGI (MOLT-4 leukemia) | TGI (SW-620 colon) | TGI (U251 CNS) | TGI (UACC-257 melanoma) | TGI (UACC-62 melanoma) | TGI (CAKI-1 renal) | GI50 (NCI/ADR-RES ovarian) | TGI (NCI/ADR-RES ovarian) | GI50 (U251 CNS) | GI50 (UACC-257 melanoma) | GI50 (UACC-62 melanoma) | GI50 (CAKI-1 renal) | GI50 (KM12 colon) | GI50 (MOLT-4 leukemia) | GI50 (SW-620 colon)
CC(C)C(NC(=O)OC(C)(C)C)C(=O)N(C)C(Cc1ccccc1)C(=O)N(C)C(C(=O)N(C)C(C(=O)OCc1ccccc1)C(C)C)C(C)C (centres undefined) (Boc-V[NMeF][NMeV][NMeV]-OBn; configuration not given here) | > 100 µM | > 100 µM | > 100 µM | > 100 µM | > 100 µM | > 100 µM | > 100 µM | > 100 µM | > 100 µM | > 100 µM |  |  |  |  |  |  |  |  |  | 
CSC(=S)N(C)NC(=O)c1cccc(C(=O)NN(C)C(=S)SC)n1 | 17 µM | > 100 µM | > 100 µM | > 100 µM | > 100 µM | > 100 µM | > 100 µM | 54.6 µM | 56.9 µM | 55.8 µM |  |  |  |  |  |  |  |  |  | 
Cc1cc(=O)c2c(O)c3c(O)cc(O)c4c5c(O)cc(O)c6c(O)c7c(=O)cc(C)c8c1c2c(c34)c(c65)c78 |  | > 100 µM | 49.2 µM |  | > 63.6 µM | > 100 µM and 24.2 µM | > 100 µM | > 100 µM | > 100 µM | > 100 µM | > 100 µM | > 100 µM | > 100 µM | > 100 µM and 37.3 µM | > 100 µM | > 100 µM |  |  |  | 
CN(C)c1nc(N(C)C)nc(N(C)CN(C)c2nc(N(C)C)nc(N(C)C)n2)n1 | > 100 µM | > 100 µM | > 100 µM | > 100 µM | > 100 µM | > 100 µM | > 100 µM | > 100 µM | > 100 µM | > 100 µM | > 100 µM |  |  |  |  |  |  |  |  | 
COc1ccc(C2C(C(=O)O)=C(COC(C)=O)Oc3cc4c(cc32)OCO4)cc1 (centres undefined) | > 100 µM |  | > 100 µM |  | > 100 µM | > 100 µM | > 100 µM | > 100 µM | > 100 µM | > 100 µM | > 100 µM |  |  |  |  |  |  |  |  | 
CC(C)C(/C=C/c1ccccc1)=N\NC(=O)N/N=C(/C=C/c1ccccc1)C(C)C | 60.1 µM | > 100 µM | 93.6 µM | 75.3 µM | 76.9 µM | 54.3 µM | > 100 µM | > 100 µM | > 100 µM | > 100 µM | 30.6 µM |  |  |  |  |  |  |  |  | 
CC(=O)Nc1ccc(-c2nnc(SCC(=O)Nc3ccccc3[N+](=O)[O-])o2)cc1 | > 100 µM | > 100 µM | > 100 µM | > 100 µM | > 100 µM | > 100 µM | > 100 µM | > 100 µM | > 100 µM | > 100 µM | > 100 µM |  |  |  |  |  |  |  |  | 
O=C(c1ccc(Cl)cc1)N(C(=S)N1CCN(c2ccccn2)CC1)c1ccccc1 | > 100 µM | > 100 µM | > 100 µM | > 100 µM | > 100 µM | > 100 µM | > 100 µM | > 100 µM | > 100 µM | > 100 µM | > 100 µM |  |  |  |  |  |  |  |  | 
Oc1c(I)cc(I)cc1CNCCCN(Cc1ccccn1)Cc1ccccn1 |  | 1.97 µM |  |  |  | 2.92 µM | 2.41 µM | 2.68 µM | 3.39 µM | 1.74 µM | 1.74 µM | 1.44 µM | 4.29 µM | 1.11 µM | 1.21 µM | 0.907 µM | 0.896 µM | 0.986 µM | 1.18 µM | 1.04 µM
C=C(C)CC1=C(C(=S)NCCO[Si](C)(C)C(C)(C)C)C(OCC)(OCC)C1=O |  | 45.9 µM |  |  |  | > 100 µM | 47 µM | 63 µM | 32.1 µM | 33.4 µM | 31.9 µM |  | > 100 µM |  |  |  |  |  |  | 
CC(O)(c1ccccc1)c1nccc2ccccc12 (centres undefined) |  | > 100 µM |  |  |  | > 100 µM | > 100 µM | > 100 µM | > 100 µM | > 100 µM | > 100 µM |  | > 100 µM |  |  |  |  |  |  | 
C=CCC1NCCC2=C1C(S(=O)(=O)c1ccc(C)cc1)c1ccccc12 (centres undefined) |  | 22.6 µM |  |  |  | > 100 µM | 29.4 µM | 24 µM | > 53.4 µM | 24.6 µM | 19.6 µM |  | 28.5 µM |  |  |  |  |  |  | 
CC(=O)c1ccc2c(c1)oc(=O)n2CCN(C)C |  | > 100 µM |  |  |  | > 100 µM | > 100 µM | > 100 µM | > 100 µM | > 100 µM | > 100 µM |  | > 100 µM |  |  |  |  |  |  | 
Cc1ccc(S(=O)(=Nc2ccccc2)C(C(C)C)C(C)(C)Cl)cc1 (centres undefined) |  | > 50 µM |  |  |  | 32.3 µM | > 50 µM | > 50 µM | > 50 µM | > 50 µM | > 50 µM |  | > 50 µM |  |  |  |  |  |  | 
O=C(CCc1cc(O)cc(O)c1)NCCc1ccc(O)c(O)c1 |  | > 100 µM |  |  |  | > 100 µM | > 100 µM | > 100 µM | > 100 µM | > 100 µM | > 100 µM |  | > 100 µM |  |  |  |  |  |  | 
Cc1ccccc1NC(=S)N=Nc1c(O)[nH]c2ccccc12 |  | > 100 µM |  |  |  | > 100 µM | > 100 µM | > 100 µM | > 100 µM | > 100 µM | > 100 µM |  | > 100 µM |  |  |  |  |  |  | 
Cc1ccc(S(=O)(=O)n2cc(-c3cnc(N)c(Br)n3)c3ccccc32)cc1 |  | > 40.1 µM |  |  |  | 10.7 µM | > 100 µM | > 77.5 µM | > 100 µM | > 57.2 µM | > 100 µM |  | > 25.7 µM |  |  |  |  |  |  | 
FC1CCN(C2(c3cccs3)CCCCC2)CC1 |  | > 100 µM |  |  |  | > 100 µM | > 100 µM | > 100 µM | > 100 µM | > 100 µM | > 100 µM |  | > 100 µM |  |  |  |  |  |  | 
O=c1c2c([nH]c3cc4c(cc13)OCO4)-c1ccccc1CCC2 |  | > 50 µM |  |  |  | > 50 µM | > 50 µM | > 50 µM | > 50 µM | > 50 µM | > 50 µM |  | > 50 µM |  |  |  |  |  |  | 
COc1cc2c3c(cc(Cl)nc3c1OC)C(O)(CC(C)=O)C(=O)N2 (centres undefined) |  | > 61.6 µM |  |  |  | > 34.5 µM | > 71 µM | > 100 µM | 21.5 µM | 31.5 µM | 37.7 µM |  | > 63.9 µM |  |  |  |  |  |  | 
Cc1cc2nc3n(c2cc1C)C(c1c(F)cccc1F)SC3 (centres undefined) |  | > 10 µM |  |  |  | 47 µM | 50.9 µM | 32.3 µM | > 100 µM | > 10 µM | 60.3 µM |  | 34.6 µM |  |  |  |  |  |  | 
[N-]=[N+]=C1CNC(=O)NC1=O |  | > 100 µM |  |  |  | > 100 µM | > 100 µM | > 100 µM | > 100 µM | > 100 µM | > 100 µM |  | > 100 µM |  |  |  |  |  |  | 
CN(N)C(=O)NCCCl |  | > 100 µM |  |  |  | > 100 µM | > 100 µM | > 100 µM | > 100 µM | > 100 µM | > 100 µM |  | 0.31 µM |  |  |  |  |  |  | 
O=C1CCC2=C(CCC2)N1CCc1ccc2c(c1)OCO2 |  | > 100 µM |  |  |  | > 100 µM | > 100 µM | > 100 µM | > 100 µM | > 100 µM | > 100 µM |  | > 100 µM |  |  |  |  |  |  | 
O=C1Nc2ccccc2NC1C1OC(c2ccccc2)=CC1=O (centres undefined) |  | > 100 µM |  |  |  | > 100 µM | > 100 µM | > 100 µM | > 100 µM | > 100 µM | > 100 µM |  | > 100 µM |  |  |  |  |  |  | 
CCCCCCC(CCl)c1sc(-c2csc(CCNC(=O)OC(C)(C)C)n2)nc1C(=O)OC (centres undefined) |  | 80.5 µM |  |  |  | 24.2 µM | > 100 µM | 38 µM | 67.6 µM | 38.9 µM | > 100 µM |  | 14.8 µM |  |  |  |  |  |  | 
COc1ccc(N2C(=O)C3c4[nH]c5ccccc5c4C4CCC(C(C)C)CC4C3C2=O)cc1 (centres undefined) |  | > 100 µM |  |  |  | > 100 µM | > 100 µM | > 100 µM | > 100 µM | > 100 µM | > 100 µM |  | > 100 µM |  |  |  |  |  |  | 
O=C([C@H](O)[C@@H](O)c1ccc(Br)cc1)C12CC3CC(CC(C3)C1)C2 |  | > 74.9 µM |  |  |  | > 100 µM | > 38.4 µM | > 36.4 µM | > 43.3 µM | 25.8 µM | 59.2 µM |  | > 57.1 µM |  |  |  |  |  |  | 
C[C@]12CCC(=O)C=C1CC[C@@H]1[C@@H]2C(=O)C[C@@]2(C)[C@H]1CC[C@]2(O)C(=O)CO | > 100 µM | > 100 µM | > 100 µM | > 100 µM | > 100 µM | > 100 µM | > 100 µM | > 100 µM |  |  | > 100 µM |  |  |  |  |  |  |  |  | 
